Results: patent US8084612B2, “Proline analogs as ligands for cannabinoid receptors” (Purdue Pharma L.P., priority 2008, dated 2011)

Tests used:
[1] = target: T1, CB1 receptor (Homo sapiens, UniProt P21554); assay: Competition binding assay, [3H]-CP55,940 displacement, CB1 CHO-K1 membranes
Protocol: (§1) CHO-K1 cells expressing CB1 or CB2 receptors (which were purchased from EuroScreen; Brussels, Belgium) were grown to confluency (20-40×10^6 cells) in 10 cm dishes. Cells were lysed by adding 10 mL/dish ice-cold hypotonic buffer (2.5 mM MgCl2, 50 mM HEPES, pH 7.4). Cell lysates were removed using a cell scraper and homogenized 30 seconds with a BioSpec Tissue Tearer™ (Racine, Wis.). Membranes were collected by centrifugation at 30,000 g for 15 min at 4° C. and pellets resuspended in hypotonic buffer to a final concentration of 1-3 mg/mL.
(§2) Membranes (CB1 or CB2 CHO-K1: 1 μg/well) were incubated at room temperature for 1 hour with 0.5 nM [^3H]-CP55,940 in 500 μL of assay buffer (5 mM MgCl2, 5 mg/mL BSA, 2.5 mM EDTA and 50 mM Tris-HCl, pH 7.4) in the presence of increasing concentrations of unlabeled competitors, e.g. WIN55, 212-2 (a CB1 receptor agonist available from Sigma-Aldrich, St. Louis, Mo.) or ligand of interest. The final concentration of DMSO was 5% . Reactions were terminated by rapid filtration using a 96-well filtration apparatus (Brandel, Gaithersburg, Md.) onto GE/C filter plates (PerkinElmer Life Sciences; Boston, Mass.) pretreated with polyethylenimine 0.5% (w/v). The plates were washed three times with 500 μL of ice-cold assay buffer. Filter plates were subsequently dried at 50° C. for 2-3 hours. Fifty microliters per well BetaScint 20 (PerkinElmer) scintillation cocktail was added and plates counted in a TopCount (PerkinElmer) for 1 min/well.
(§3) Data were analyzed using GraphPad PRISM™, v. […] The concentrations of unlabeled competitors that yield 50% displacement (IC50 values) were calculated from each curve by a non-linear regression analysis fined to a one-site model. In separate experiments, equilibrium dissociation constants (Kd values) were determined for each receptor. […] All Ki values are presented as mean±SEM of n determinations.

[2] = target: T1, CB1 receptor; assay: GTPγ[35S] functional binding assay, CB1 membranes; assay type: biochemical; set-up: Brussels, Belgium; host or cells: CHO-K1; Emax: reference not given here; conditions: GTPγ[35S] binding; for EC50: n.a. = no activity detected at the highest concentration tested, read-out: CB1 EC 50
[3] = target: CB2 receptor (Homo sapiens, UniProt P34972); assay: Competition binding assay, [3H]-CP55,940 displacement, CB2 CHO-K1 membranes
Sequence of CB2 receptor (P34972 whole entry): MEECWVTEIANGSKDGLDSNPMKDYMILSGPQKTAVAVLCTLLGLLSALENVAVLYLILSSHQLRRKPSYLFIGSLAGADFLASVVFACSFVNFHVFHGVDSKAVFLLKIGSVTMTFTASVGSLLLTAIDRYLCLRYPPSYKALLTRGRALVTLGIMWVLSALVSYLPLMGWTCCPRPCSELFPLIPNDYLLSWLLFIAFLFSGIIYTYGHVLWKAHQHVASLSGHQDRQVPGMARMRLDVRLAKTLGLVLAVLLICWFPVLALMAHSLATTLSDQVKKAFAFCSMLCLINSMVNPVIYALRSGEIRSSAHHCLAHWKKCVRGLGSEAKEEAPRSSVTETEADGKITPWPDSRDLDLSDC
Protocol: as §1, §2, §3

T1 sequence (P21554 whole entry): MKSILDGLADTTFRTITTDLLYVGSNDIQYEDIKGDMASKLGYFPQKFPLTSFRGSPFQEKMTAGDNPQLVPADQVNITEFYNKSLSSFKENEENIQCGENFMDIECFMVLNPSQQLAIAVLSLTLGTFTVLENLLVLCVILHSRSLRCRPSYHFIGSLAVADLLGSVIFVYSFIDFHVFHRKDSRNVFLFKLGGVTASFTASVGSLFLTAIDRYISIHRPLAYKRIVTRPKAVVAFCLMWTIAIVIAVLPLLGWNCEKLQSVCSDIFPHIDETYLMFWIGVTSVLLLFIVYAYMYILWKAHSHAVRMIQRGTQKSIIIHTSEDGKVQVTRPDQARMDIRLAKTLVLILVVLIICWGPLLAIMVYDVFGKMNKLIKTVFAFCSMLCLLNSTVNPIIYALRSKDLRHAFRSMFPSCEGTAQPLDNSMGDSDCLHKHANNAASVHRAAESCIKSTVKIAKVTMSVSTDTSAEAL

| SMILES | Ki [1] | Emax [2] | EC50 [2] | Ki [3] |
| --- | --- | --- | --- | --- |
| O=C(Nc1sc2c(c1C(=O)N1CCCCC1)CCCCC2)[C@H]1CCCN1S(=O)(=O)c1ccccc1 [AAA(a)] | 4.7 nM | 80% | 702 nM | 4.3 nM |
| O=C(Nc1sc2c(c1C(=O)N1CCCCC1)CCCCC2)[C@@H]1CCCN1S(=O)(=O)c1ccccc1 [AAA(b)] | 366 nM | 8% | – | – |
| O=C(Nc1sc2c(c1C(=O)N1CCCCC1)CCCCC2)[C@H]1CCCN1S(=O)(=O)c1ccc(F)cc1 [AAB(a)] | 43.5 nM | 68% | 1910 nM | 35.8 nM |
| Cc1ccc(S(=O)(=O)N2CCC[C@@H]2C(=O)Nc2sc3c(c2C(=O)N2CCCCC2)CCCCC3)cc1 [AAC(a)] | 261 nM | 8% | – | 154 nM |
| CS(=O)(=O)N1CCC[C@@H]1C(=O)Nc1sc2c(c1C(=O)N1CCCCC1)CCCCC2 [AAD(a)] | 2190 nM | – | – | – |
| O=C(Nc1sc2c(c1C(=O)N1CCCCC1)CCCCC2)[C@H]1CCCN1S(=O)(=O)c1cccs1 [AAF(a)] | 7.3 nM | 150% | 425 nM | 4.5 nM |
| CCOC(=O)c1c(NC(=O)[C@H]2CCCN2S(=O)(=O)c2ccccc2)sc2c1CCCCC2 [ABE(a)] | 15.1 nM | – | > 25000 nM | 11.5 nM |
| O=C(Nc1sccc1C(=O)N1CCCCC1)[C@H]1CCCN1S(=O)(=O)c1ccccc1 [CAA(a)] | 1890 nM | – | – | – |
| O=C(Nc1ccsc1C(=O)N1CCCCC1)[C@H]1CCCN1S(=O)(=O)c1ccccc1 [DAA(a)] | 1240 nM | – | – | – |
| O=C(Nc1sc2c(c1C(=O)N1CCCCC1)CCCCC2)[C@H]1CCCN1C(=O)c1ccccc1 [EAA(a)] | 9290 nM | – | – | – |
| O=C(Nc1ccccc1C(=O)N1CCCCC1)[C@H]1CCCN1S(=O)(=O)c1ccccc1 [GAA(a)] | 1130 nM | – | – | – |
